The values that follow come from PMC6595003, “Insights into real-time chemical processes in a calcium sensor protein-directed dynamic library” (Nature Communications, 2019).

The target in data set [1] is T1, dNCS-1 (Drosophila melanogaster, UniProt Q9VWX8).
T1 construct: made in house; host or cells: E. coli
T1 sequence (Q9VWX8 1-187): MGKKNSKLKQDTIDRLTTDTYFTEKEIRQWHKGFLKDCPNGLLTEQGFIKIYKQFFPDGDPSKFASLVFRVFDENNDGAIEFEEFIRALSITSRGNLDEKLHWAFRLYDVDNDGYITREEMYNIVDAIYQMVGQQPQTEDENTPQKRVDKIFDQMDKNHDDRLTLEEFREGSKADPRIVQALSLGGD
The experiment in a line: Tryptophan emission fluorescence of dNCS-1 at increasing ligand concentrations (apparent Kd). Type of data set: binding. On the procedure: Fluorescence-based experiments with 3a–3e were carried out to estimate their affinity to dNCS-1.
Mean ± SD from three independent experiments. The curves represent the least squares fitting of the experimental data to a 1:1 stoichiometry. To properly compare the different curves, intensities were normalized and represented. […] Input represents 1/10 cell lysates before IP. Quantifications of each lane from four experiments are shown below the blots. Bars represent percentage of NCS-1/ Ric8a binding (mean ± SD) normalized to DMSO. […] Mean ± SD from three independent experiments. […] Then, the percentage of picnotic bodies over the total nuclei was analyzed. Mean ± SD from three independent experiments. Paired two-tailed Student’s test ***P˂0.001; **P < 0.01; *P < 0.05. Source data are provided as a Source Data file. IP immunoprecipitation, WB western blot […]
the length of the pass light (L) is 1cm (see Supplementary Table 3 and Supplementary […]
Fluorescence emission experiments. Tryptophan emission fluorescence of dNCS-1 […]
affinity and calculate the apparent dissociation constant, Kd. Fluorescence measurements were performed by Jobin Yvon Floromax4 spectrofluorimeter equipped […]
5% DMSO at 5 °C. The excitation wavelength was fixed at 295 nm, and the emission spectra range were collected over 300-400 nm.
Then, three independent experiments were performed
Fluorescence intensities were normalized and represented as (I0 − I)/I 0. I stands for the observed fluorescence emission at 345 nm (fluorescence maximum), and I0 is the observed fluorescence emission of the protein itself without any small molecule. The apparent dissociation constant was obtained using a least squares algorithm to fit the experimental data to a 1:1 stoichiometry model.6 The fitting was performed with KaleidaGraph Data Analysis Program. […]
Protein expression and purification. Drosophila and human NCS-1 were over-expressed in E. coli and subsequently purified to homogeneity as previously described.9

Data set [2] addresses T1, dNCS-1. In words: Protein-directed DCL, HPLC-MS relative peak area with and without dNCS-1. Here is the method: The reversibility of the DCL was evident, since an identical equilibrium distribution to that shown in Fig. 4a was obtained when two different starting points were employed. The observed degree of amplification was 3b > 3e ≥ 3d > 3a. The precise composition of the DCL (with and without dNCS-1), was assessed by measuring the relative peak area (RPA). Indeed, the normalized change of RPA was used to quantify the protein influence in the final outcome (Supplementary Figs. 9, 10 and Supplementary Tables 1, 2 and 3)[28]. […] Note that compounds 3a–3e can exist as E/Z isomers of the C = N bond. […].
Aldehyde 1 (1.2 μL, 50 mM, DMSO), the five acylhydrazides 2a–2e (5 × 3.6 μL, 50 mM, DMSO), p-anisidine (1 μL, 12 M, DMSO) and buffer 20 mM Tris, 0.5 M NaCl and 1 mM CaCl2, 1 mM DTT at pH 7.4 (750 μL) in 3.3 % DMSO. The mixture was stabilized in 5 h at 4 °C. HPLC analysis was performed.
Aldehyde 1 (1.2 μL, 50 mM, DMSO), the five acylhydrazides 2a–2e (5 × 3.6 μL, 50 mM, DMSO), p-anisidine (1 μL, 12 mM, DMSO) and dNCS-1 in buffer 20 mM Tris, 0.5 M NaCl and 1 mM CaCl2, 1 mM DTT at pH 7.4 (66.7 μM, 750 μL, 1 eq.). The experiment is in 3.3% DMSO. The mixture was stabilized for 5 h at 4 °C. Then, dNCS-1 was removed by ultrafiltration using an Amicon Ultra filter (0.5–10 KDa). HPLC analysis was performed and the traces were compared with the blank composition.
Supplementary Figure 9. Relative Peak Area of the DCL with and without dNCS1. Aldehyde
1 (1.2 µL, 50 mM), 2a-e (3.6 µL, 50 mM), catalyst (1 µL, 12 M), dNCS-1:1 [1:1], tris buffer (20
mM, pH 7.4), 1 mM CaCl2, 0.5 M NaCl, 1 mM DTT, T = 4 °C, 2% DM SO. Mean relative peak
area (RPA) of each acylhydrazone of the library in the absence (blank) and presence of dNCS-1.
Error bars indicate standard deviation (SD) over three experiments. The calculation is set by the
sum of all peak areas to 100% and assigning each peak its percentage. Source data are provided
R P A N o rm aliz ed V a riation
Supplementary Figure 10. RPA normalized of variation of DCL with and without dNCS1.
Aldehyde 1 (1.2 µL, 50 mM), 2a-e (3.6 µL, 50 mM), catalyst (1 µL, 12 M), dNCS-1:1 [1:1], tris
buffer (20 mM, pH 7.4), 1 mM CaCl2, 0.5 M NaCl, 1 mM DTT, T = 4 °C, 2% DM SO. Error
bars indicate SD over three experiments. Source data are provided as a Source Data file.

The target in data set [3] is T1, dNCS-1. The experiment in a line: tr-NOESY, DOSY and 1H-NMR of DCL mixtures in the presence of dNCS-1. Type of data set: binding. The settings on record: 281 K, up to 15 days. Here is the method: Fig. 4 HPLC-MS and NMR studies of the full dynamic combinatorial library. a DCL chromatograms after 5 h in the absence and in the presence of dNCS-1. Conditions: aldehyde 1 (1.2 µL, 50 mM), 2a–2e (3.6 µL, 50 mM), catalyst (1 µL, 12 M), dNCS-1:1 [1:1], Tris buffer (20 mM, pH 7.4), 1 mM CaCl2, 0.5 M NaCl, 1 mM DTT, T = 4 °C, 2% DMSO. DCC experiments were carried out in triplicate. b 1D-^1H NMR spectrum (red) of the mixture and DOSY experiment (black) of the DCL in the presence of dNCS-1 (281 K, 600 MHz). c Tr-NOESY spectrum of the DCL mixture in the presence of dNCS-1 (mixing time 200 ms, 281 K, 600 MHz). Amplification of the region δ 7.2–8.0 ppm. […]. The new signals that reveal the formation of 3b (aromatic region) and 2c (aliphatic region) are marked with stars. ^1H-STD-NMR (blue) and off-resonance (red) NMR spectra of the mixture 2b + 3c + dNCS-1 (281 K, 600 MHz) after 15 days
DOSY-NMR and tr-NOESY-NMR experiments were also recorded to follow the exchange process.
The experiments were performed on the same samples and spectrometer, at 281 K. The tr-NOESY mixing time was fixed at 200 ms. The DOSY experiments were acquired with 16 gradient increments to a final intensity decay of 90%.

For data set [4], the system named is Cortical neurons from E14 wild-type mice. In words: Toxicity in primary cultured neurons (percentage of picnotic bodies). Type of data set: cell-based. The settings on record: C57BL6J, mouse, 24 h. The source says: (§1) Mean ± SD from three independent experiments. The curves represent the least squares fitting of the experimental data to a 1:1 stoichiometry. To properly compare the different curves, intensities were normalized and represented. […] Input represents 1/10 cell lysates before IP. Quantifications of each lane from four experiments are shown below the blots. Bars represent percentage of NCS-1/ Ric8a binding (mean ± SD) normalized to DMSO. […] CNS + (green) for Pe > 4.47 × 10^−6 cm s^−1, CNS- (red) for compounds with Pe < 4.47 × 10^–6 cm s^−1. […] Mean ± SD from three independent experiments. […] Then, the percentage of picnotic bodies over the total nuclei was analyzed. Mean ± SD from three independent experiments. Paired two-tailed Student’s test ***P˂0.001; **P < 0.01; *P < 0.05. Source data are provided as a Source Data file. IP immunoprecipitation, WB western blot
Finally, cell toxicity in neurons was quantified as percentage of picnotic bodies for 3b (Fig. 6d).
Cortical neurons were obtained from E14 wt mice (C57BL6J). Mice were maintained in accordance to European law and following Hospital Ramón y Cajal´s animal guidelines. […] Three independent experiments counting cells from three different wells per concentration were performed. To analyzed cell death, neurons were fixed and stained with DAPI.

Data set [5] concerns the target T2, NCS-1/Ric8a interaction (Homo sapiens, UniProt P62166).
T2 construct: expressed in transfected cells; host or cells: HEK293 cells (Dharmacon)
The experiment in a line: Co-IP binding assay of human NCS-1 and V5-tagged Ric8a in transfected HEK cells. It counts as cell-based. The settings on record: compound 20 μM.
Excerpt: as §1
Binding assays with NCS-1 and Ric8a in co-transfected HEK cells were carried out to study the modulation effect of compounds 3a, 3b and 3d in the protein-protein interaction (Fig. 6b).
hNCS-1 and V5-tagged hRic8a were co-transfected into HEK293 cells (Dharmacon) using Lipofectamine 2000 (Invitrogen)[13]. After 24 h, after transfection, DMSO alone or the compounds dissolved in DMSO (20 μM) were added to the culture cells. Then, 24 h after transfection, cells were lysed with Lysis buffer (150 mM NaCl, 1.0% Nonidet P-40, 50 mM Tris, pH 8.0) in the presence of the compounds (20 μM), whose concentration was maintained throughout the immunoprecipitation assay. Precleared lysates were incubated overnight (12 h) at 4 °C with mouse anti-NCS-1 (1:500; Cell Signaling). Samples were subsequently incubated overnight with Protein-G-Sepharose (Sigma-Aldrich), washed and eluted from the Sepharose. Samples were analyzed by Western blot following standard procedures. […] Original representative western blots are found in Source Data file.

The test system of data set [6] is NCS-1/Ric8a interaction. Also on record: method as in PMID 28119500, PMID 29966094. The settings on record: cited from earlier work.
Setting [7] is: Ca2+ loaded dNCS-1 0.8 µM, pH 7.9, 5% DMSO, 5 °C, fit to 1:1 stoichiometry, three independent experiments.

Values joined by “and” are separate entries in the source; they are usually repeats but may differ in a detail not shown here. Equal entries are not always repeated.

T2 sequence (P62166 2-190 limits assumed): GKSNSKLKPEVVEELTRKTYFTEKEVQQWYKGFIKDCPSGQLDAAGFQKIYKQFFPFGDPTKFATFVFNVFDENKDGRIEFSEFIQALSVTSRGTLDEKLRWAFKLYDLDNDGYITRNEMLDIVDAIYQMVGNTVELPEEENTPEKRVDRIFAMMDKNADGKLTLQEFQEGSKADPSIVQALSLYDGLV

Regarding `COCCC(=O)N/N=C/c1ccc([N+](=O)[O-])c(O)c1` [3c], the “apparent Kd” value on dNCS-1 [1] (setting [7]) was “did not show affinity”. Moreover, the “degree of amplification in the DCL in presence of dNCS-1” value at dNCS-1 [2] (after 5 h, 4 °C, pH 7.4, p-anisidine catalyst) is given as “clearly reduced in presence of dNCS-1”. The “RPA, Blank DCL” value on dNCS-1 [2] (as fraction of total area) is 0.09603. For the same molecule, the “RPA, Templated DCL” value at dNCS-1 [2] (as fraction of total area, with dNCS-1) is on record as 0. The “RPA (%) with protein (templated DCL)” value at dNCS-1 [2] (relative peak area in presence of dNCS-1) is given as 0%. In addition, at dNCS-1 [2] (relative peak area, sum of all peak areas set to 100%), the “RPA (%) without protein (blank DCL)” value is 9.6% and 9.603%. The same molecule displayed an RPA (%), Blank DCL on dNCS-1 [2] (sheet Supplementary Figure 10) of 9.6%. Also, at dNCS-1 [2] (sheet Supplementary Figure 10, with dNCS-1), the RPA (%), Templated DCL amounted to 0%. At dNCS-1 [2] (with vs without dNCS-1), the “Normalized Change of RPA” value was -1. For the same molecule, the “binding to dNCS-1 (1H-NMR evolution of the mixture 3c + 2b with dNCS-1)” value on dNCS-1 [3] is given as “extremely weak or non-binder”.
Consider `CN(C)CCCN1c2ccccc2Sc2ccc(Cl)cc21` [CPZ, Chlorpromazine, reference compound], for which the “percentage of picnotic bodies over total nuclei, average” value was found to be 11.1667% in data set [4] (0.2 μM), 15.1% in data set [4] (2 μM), 22.2333% in data set [4] (10 μM) and 38.7667% in data set [4] (20 μM). Besides, the “percentage of picnotic bodies, % exp 2” value in data set [4] (0.2 μM) was 9.6%; in data set [4] (2 μM), 11%; in data set [4] (10 μM), 25.7%; in data set [4] (20 μM) it was 29.3%. The “percentage of picnotic bodies, % exp 3” value amounted to 11.1% in data set [4] (0.2 μM), 19.3% in data set [4] (2 μM), 15% in data set [4] (10 μM) and 39% in data set [4] (20 μM). For the same molecule, the “percentage of picnotic bodies, % exp.1” value in data set [4] (0.2 μM) worked out at 12.8%; in data set [4] (2 μM), 15%; in data set [4] (10 μM) it was 26%; in data set [4] (20 μM), 48%. On dNCS-1 [1] (setting [7]), the Kd stood at 12 ± 2 µM. Moreover, the “Normalized Fluorescence I0-I/I0” value on dNCS-1 [1] (ligand 3.2 μM) is given as 0.266; on dNCS-1 [1] (ligand 6.4 μM), 0.263; at dNCS-1 [1] (ligand 8 μM), 0.448; on dNCS-1 [1] (ligand 16 μM) it was 0.643; on dNCS-1 [1] (ligand 24 μM), 0.730; at dNCS-1 [1] (ligand 32 μM), 0.794. The “modulation of the NCS-1/Ric8a binding” value on NCS-1/Ric8a interaction [5] (compared with DMSO (basal binding 100%)) is recorded as “reduced binding”. Moreover, on NCS-1/Ric8a interaction [5] (DMSO in the same experiment 4613104), the “Densitometry of V5-Ric8a co-immunoprecipitated with NCS-1, exp3” value turned out to be 3547054. On NCS-1/Ric8a interaction [5] (DMSO in the same experiment 9508518), the “Densitometry of V5-Ric8a co-immunoprecipitated with NCS-1, exp2” value was found to be 4354560. For the same molecule, the “Densitometry of V5-Ric8a co-immunoprecipitated with NCS-1, exp1” value on NCS-1/Ric8a interaction [5] (DMSO in the same experiment 19247016) was found to be 3883518. In the data set on NCS-1/Ric8a interaction [6], the “reported inhibition of the NCS-1/Ric8a interaction” value is “mild inhibitor and mild”.
